Legend:
cherry crops = test: bursting of cherries after rainfall, exogenous application of ABA before rainfall; type: in vivo; settings: variety Hedelfinger
Text: In cherry crops it is an important problem that if it rains shortly before the harvest the cherries are capable of absorbing large quantities of water in their interior. This frequently causes them to burst so that they can no longer be utilized. Exogenous application of ABA in cherry crops before rainfall reduces the bursting of the variety Hedelfinger, for example, by up to 30%.

firs and spruces = test: stress-susceptibility and needle retention of Christmas trees; type: in vivo
vine = test: quality enhancement in wine growing with ABA; type: in vivo; settings: applied for several weeks prior to harvest
Text: ABA can also be used for quality enhancement in wine growing. […] This leads to a higher density of the wine and thereby to wines with improved storage stability. Analogous effects occur in pears and apples.

sugar-beets = test: sugar transport from the leaves into the beet body; type: in vivo; settings: about 2 to 3 weeks before harvest; same effect in potatoes, red beet and carrots
Text: A further surprising inventive feature of the phytohormonal properties of ABA is the effect of promoting the protein and sugar transport in the plants from the leaves into the root(s). […] The same effect is observed in potatoes, red beet and carrots. The increase in sugar content leads to a substantial quality improvement of the harvested produce.

trees in fruit crops = test: renewed burgeoning following rain after a prolonged period of dryness; type: in vivo, trees in fruit crops; potatoes; settings: also observed in potatoes
Text: It has furthermore been observed that trees in fruit crops following rain after a prolonged period of dryness burgeon again. This has a negative influence on the quality of the fruit. […] This effect has also been observed in potatoes.

chrysanthemums = test: frost resistance, damaged flowers after frost; type: in vivo; settings: application about 24 hours prior to the frost
Method: Just as astonishing is the effect that exogenous application of ABA leads to frost resistance in crops, e.g. pears and apples, of adornment plants and fruit crops which has been observed. Application about 24 hours prior to the frost reduced the number of damaged flowers in chrysanthemums by 48%.

apples and pears = test: leaf abortion in apples and pears; type: in vivo
Text: This makes a further treatment with a fungicide unnecessary.

grapes = test: GA3 in grapes compared to treatment with ethephon; type: in vivo
Text: (§1) According to a further embodiment of the invention, GA3 and/or GA4/7 is/are used during the blooming period in the cultivation of […] grapes, table grapes or of grapes for special purposes, to enhance quality and as a protective measure against botrytis disease, in an application concentration of 5 to 100, preferably 5 to 50, especially 10 to 20 ppm, based on a quantity of water of 300 to 500, preferably 350 to 450 l/ha.

botrytis disease = test: infestation of grapes with botrytis disease; type: in vivo; settings: loosening-up of the grapes (lengthening of the stalks)
Text: as §1, with “l/ha. […] By contrast to conventional treatment with fungicides this happens purely mechanically/morphologically since the greater length of the stalks prevents mutual pushing away of the grapes, and damage to the grapes is thereby avoided. Such damage results in the occurrence of nest-shaped focuses of rot.” for “l/ha.”

SMILES	reduction of the bursting of cherries (cherry crops)	needle retention (firs and spruces; compared with untreated trees)	stress-susceptibility (firs and spruces; firs and spruces harvested as Christmas trees)	increase in sugar content of the grapes (vine)	reduction of the size of the grapes (vine)	transport of leaf sugar into the body of the beet (sugar-beets)	renewed burgeoning of the plants (trees in fruit crops)	reduction of the number of damaged flowers (chrysanthemums) [%]	leaf abortion (apples and pears)	density of the wine, colour and wine quality (grapes)	grape weight (grapes)	mean grape diameter (grapes)	infestation with botrytis disease (botrytis disease)
CC(C=C[C@@]1(O)C(C)=CC(=O)CC1(C)C)=CC(=O)O (stereo in doubt) [ABA, (S)-5-(1-hydroxy-2,6,6-trimethyl-4-oxo-2-cyclohexenyl)-3-methyl-cis/trans-2,4-pentadienoic acid]	up to 30%	keep their needles for much longer than untreated trees	reduction of stress-susceptibility	comparable increase in sugar content	up to 10%	the sugar present in the leaves is additionally transported into the body of the beet	prevents renewed burgeoning of the plants	48	quick leaf abortion	–	–	–	–
C=C1C[C@]23C[C@@]1(O)CC[C@H]2[C@@]12C=C[C@H](O)[C@@](C)(C(=O)O1)[C@H]2[C@@H]3C(=O)O [GA3, gibberellin A3]	–	–	–	–	–	–	–	–	–	improved	no reduction in grape weight is observed	larger	reduction in infestation with botrytis disease

Source: patent US20050198896A1, “Novel vegetal reinforcing agent based on phytohormones for use in the cultivation of plants or agriculture, preferably in the cultivation of fruit or in wine growing” (priority 2002, published 2005)
